Data: ChEMBL document CHEMBL4715760, “Balancing potency, metabolic stability and permeability in pyrrolopyrimidine-based EGFR inhibitors” (Eur J Med Chem, 2016)

How the values were obtained:
[1] = molecular target: Ephrin type-A receptor 2 (Homo sapiens) (UniProt P29317); assay: Inhibition of recombinant human GST-tagged EPHA2 cytoplasmic domain expressed in baculovirus expression system at 500 nM using Tyr 01 peptide as substrate incubated for 1 hr in presence of ATP at its Km concentration by Z'-LYTE assay relative to control
Ephrin type-A receptor 2 (Homo sapiens), sequence (P29317 whole entry, the tested form may be a part): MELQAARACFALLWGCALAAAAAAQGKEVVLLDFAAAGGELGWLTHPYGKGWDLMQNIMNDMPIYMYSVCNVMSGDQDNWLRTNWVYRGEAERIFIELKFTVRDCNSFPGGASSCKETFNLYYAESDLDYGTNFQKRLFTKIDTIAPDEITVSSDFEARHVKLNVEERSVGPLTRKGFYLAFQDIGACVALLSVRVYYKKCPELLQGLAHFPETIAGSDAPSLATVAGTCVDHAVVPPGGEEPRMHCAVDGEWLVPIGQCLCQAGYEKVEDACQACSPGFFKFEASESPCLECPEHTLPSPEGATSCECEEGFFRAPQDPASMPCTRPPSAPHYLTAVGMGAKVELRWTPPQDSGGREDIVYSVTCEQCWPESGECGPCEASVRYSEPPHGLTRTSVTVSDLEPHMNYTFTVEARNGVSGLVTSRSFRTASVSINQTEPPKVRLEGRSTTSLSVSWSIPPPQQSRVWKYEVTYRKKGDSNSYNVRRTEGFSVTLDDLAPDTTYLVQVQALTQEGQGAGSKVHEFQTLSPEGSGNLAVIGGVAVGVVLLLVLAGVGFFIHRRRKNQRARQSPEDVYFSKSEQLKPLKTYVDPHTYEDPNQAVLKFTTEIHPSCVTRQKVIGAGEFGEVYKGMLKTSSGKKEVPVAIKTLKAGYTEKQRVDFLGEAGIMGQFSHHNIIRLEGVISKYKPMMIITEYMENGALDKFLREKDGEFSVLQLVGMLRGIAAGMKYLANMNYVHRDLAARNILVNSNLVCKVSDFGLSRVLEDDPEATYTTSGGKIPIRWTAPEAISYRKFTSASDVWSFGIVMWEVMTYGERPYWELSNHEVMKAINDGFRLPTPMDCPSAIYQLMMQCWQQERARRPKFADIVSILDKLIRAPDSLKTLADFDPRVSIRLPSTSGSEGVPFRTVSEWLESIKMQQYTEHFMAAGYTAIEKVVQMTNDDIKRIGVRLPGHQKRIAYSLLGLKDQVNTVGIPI

[2] = molecular target: cAMP-dependent protein kinase catalytic subunit alpha (Homo sapiens) (UniProt P17612); assay: Inhibition of recombinant human His-tagged PRKACA (1 to 351 residues) expressed in Escherichia coli expression system at 500 nM using Ser/Thr 01 as substrate incubated for 1 hr in presence of ATP at its Km concentration by Z'-LYTE assay relative to control
[3] = molecular target: T1, Serine/threonine-protein kinase Nek1 (Homo sapiens) (UniProt Q96PY6); assay: Inhibition of recombinant human GST-tagged NEK1 (1 to 505 residues) expressed in baculovirus expression system at 500 nM using Ser/Thr 07 as substrate incubated for 1 hr in presence of ATP at its Km concentration by Z'-LYTE assay relative to control
T1 sequence (whole entry): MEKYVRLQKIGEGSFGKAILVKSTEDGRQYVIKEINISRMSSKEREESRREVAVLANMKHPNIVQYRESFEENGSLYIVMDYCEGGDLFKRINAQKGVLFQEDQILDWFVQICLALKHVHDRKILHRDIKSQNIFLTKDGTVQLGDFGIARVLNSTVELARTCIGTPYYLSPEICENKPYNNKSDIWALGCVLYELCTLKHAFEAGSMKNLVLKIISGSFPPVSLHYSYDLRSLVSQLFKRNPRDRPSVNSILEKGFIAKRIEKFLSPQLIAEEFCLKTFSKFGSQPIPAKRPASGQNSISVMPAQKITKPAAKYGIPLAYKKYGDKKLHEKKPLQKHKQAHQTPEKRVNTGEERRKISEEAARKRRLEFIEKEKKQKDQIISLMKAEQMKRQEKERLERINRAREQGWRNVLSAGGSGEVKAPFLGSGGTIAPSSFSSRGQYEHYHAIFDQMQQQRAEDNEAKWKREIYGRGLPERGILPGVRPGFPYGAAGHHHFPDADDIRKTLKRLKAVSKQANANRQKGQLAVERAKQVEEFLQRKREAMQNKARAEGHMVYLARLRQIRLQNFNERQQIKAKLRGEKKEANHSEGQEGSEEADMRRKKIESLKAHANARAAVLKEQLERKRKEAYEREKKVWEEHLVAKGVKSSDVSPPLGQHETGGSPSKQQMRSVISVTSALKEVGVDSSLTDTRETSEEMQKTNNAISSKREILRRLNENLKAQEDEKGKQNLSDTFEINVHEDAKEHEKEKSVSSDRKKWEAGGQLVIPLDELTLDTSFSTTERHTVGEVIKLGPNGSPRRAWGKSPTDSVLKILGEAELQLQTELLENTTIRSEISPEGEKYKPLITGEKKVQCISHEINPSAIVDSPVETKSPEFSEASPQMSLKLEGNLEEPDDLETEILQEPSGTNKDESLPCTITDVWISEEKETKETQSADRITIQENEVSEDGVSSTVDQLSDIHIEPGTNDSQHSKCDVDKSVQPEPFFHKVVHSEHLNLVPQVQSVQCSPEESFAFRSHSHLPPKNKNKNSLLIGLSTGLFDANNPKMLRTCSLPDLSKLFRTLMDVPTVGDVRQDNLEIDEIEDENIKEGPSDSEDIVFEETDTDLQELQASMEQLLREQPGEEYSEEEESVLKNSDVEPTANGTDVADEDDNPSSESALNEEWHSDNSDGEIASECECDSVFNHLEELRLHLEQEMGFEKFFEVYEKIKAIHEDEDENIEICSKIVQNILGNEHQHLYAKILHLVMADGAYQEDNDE

[4] = molecular target: Fibroblast growth factor receptor 1 (Homo sapiens) (UniProt P11362); assay: Inhibition of recombinant human His-tagged FGFR1 (308 to 731 residues) expressed in baculovirus expression system at 500 nM using Tyr 04 peptide as substrate incubated for 1 hr in presence of ATP at its Km concentration by Z'-LYTE assay relative to control
Fibroblast growth factor receptor 1 (Homo sapiens), sequence (P11362 22-822 limits assumed): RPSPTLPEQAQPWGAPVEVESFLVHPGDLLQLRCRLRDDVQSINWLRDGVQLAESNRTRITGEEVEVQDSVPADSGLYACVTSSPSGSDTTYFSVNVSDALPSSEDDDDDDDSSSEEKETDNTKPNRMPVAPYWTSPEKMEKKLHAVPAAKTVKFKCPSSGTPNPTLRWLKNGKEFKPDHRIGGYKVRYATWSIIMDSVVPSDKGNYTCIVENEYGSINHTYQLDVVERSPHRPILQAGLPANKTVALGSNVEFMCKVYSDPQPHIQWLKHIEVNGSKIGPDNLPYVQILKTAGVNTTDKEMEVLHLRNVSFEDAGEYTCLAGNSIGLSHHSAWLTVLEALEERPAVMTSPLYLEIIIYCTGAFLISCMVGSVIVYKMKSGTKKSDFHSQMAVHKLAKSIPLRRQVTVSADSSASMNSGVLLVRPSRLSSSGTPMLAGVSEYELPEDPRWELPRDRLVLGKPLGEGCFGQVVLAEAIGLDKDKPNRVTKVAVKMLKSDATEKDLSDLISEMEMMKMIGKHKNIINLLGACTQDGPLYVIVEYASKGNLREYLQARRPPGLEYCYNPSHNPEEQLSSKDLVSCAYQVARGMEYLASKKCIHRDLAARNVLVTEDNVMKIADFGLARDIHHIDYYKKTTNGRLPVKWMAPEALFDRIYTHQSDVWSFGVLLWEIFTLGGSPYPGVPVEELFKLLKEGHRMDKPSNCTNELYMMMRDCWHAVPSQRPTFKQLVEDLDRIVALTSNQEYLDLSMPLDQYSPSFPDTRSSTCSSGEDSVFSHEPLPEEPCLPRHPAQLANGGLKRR

[5] = molecular target: T2, Aurora kinase A (Homo sapiens) (UniProt O14965); assay: Inhibition of recombinant human full length His-tagged AURKA expressed in baculovirus expression system at 500 nM using Ser/Thr 01 as substrate incubated for 1 hr in presence of ATP at its Km concentration by Z'-LYTE assay relative to control
T2 sequence (whole entry): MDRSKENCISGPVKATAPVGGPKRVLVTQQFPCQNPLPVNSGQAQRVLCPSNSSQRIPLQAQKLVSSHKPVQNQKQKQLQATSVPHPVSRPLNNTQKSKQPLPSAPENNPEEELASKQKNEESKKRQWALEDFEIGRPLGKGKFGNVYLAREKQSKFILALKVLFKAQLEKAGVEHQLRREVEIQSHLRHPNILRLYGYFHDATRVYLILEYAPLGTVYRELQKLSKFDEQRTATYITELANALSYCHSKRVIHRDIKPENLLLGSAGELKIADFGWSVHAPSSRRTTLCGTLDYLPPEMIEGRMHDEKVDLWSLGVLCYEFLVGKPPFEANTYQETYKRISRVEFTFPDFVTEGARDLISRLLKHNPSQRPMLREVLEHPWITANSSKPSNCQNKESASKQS

[6] = molecular target: Tyrosine-protein kinase Blk (Homo sapiens) (UniProt P51451); assay: Inhibition of recombinant human His-tagged full length BLK expressed in baculovirus expression system at 500 nM using Tyr 01 peptide as substrate incubated for 1 hr in presence of ATP at its Km concentration by Z'-LYTE assay relative to control
[7] = molecular target: Protein kinase C theta type (Homo sapiens) (UniProt Q04759); assay: Inhibition of recombinant human His-tagged full length PRKCQ expressed in baculovirus expression system at 500 nM using Ser/Thr 07 as substrate incubated for 1 hr in presence of ATP at its Km concentration by Z'-LYTE assay relative to control
Protein kinase C theta type (Homo sapiens), sequence (Q04759 whole entry, looked up, the tested form may be a part): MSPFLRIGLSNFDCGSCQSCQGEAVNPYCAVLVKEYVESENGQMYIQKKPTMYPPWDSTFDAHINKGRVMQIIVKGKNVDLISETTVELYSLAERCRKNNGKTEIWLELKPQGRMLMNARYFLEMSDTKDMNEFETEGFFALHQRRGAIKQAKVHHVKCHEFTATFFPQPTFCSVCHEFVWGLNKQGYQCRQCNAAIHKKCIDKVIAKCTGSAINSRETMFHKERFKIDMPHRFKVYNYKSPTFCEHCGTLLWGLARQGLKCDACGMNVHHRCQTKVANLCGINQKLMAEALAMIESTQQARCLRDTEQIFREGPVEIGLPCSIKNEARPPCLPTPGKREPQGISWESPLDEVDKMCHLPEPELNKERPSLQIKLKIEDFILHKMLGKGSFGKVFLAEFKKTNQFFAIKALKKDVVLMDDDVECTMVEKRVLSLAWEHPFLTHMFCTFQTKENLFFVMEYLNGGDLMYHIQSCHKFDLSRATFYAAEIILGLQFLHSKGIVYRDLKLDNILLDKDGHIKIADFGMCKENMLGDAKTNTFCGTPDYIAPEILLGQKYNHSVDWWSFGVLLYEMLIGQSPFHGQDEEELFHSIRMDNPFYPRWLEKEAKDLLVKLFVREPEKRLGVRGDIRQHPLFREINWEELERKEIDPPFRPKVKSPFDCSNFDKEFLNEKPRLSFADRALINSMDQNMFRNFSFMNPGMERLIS

[8] = molecular target: Platelet-derived growth factor receptor beta (Homo sapiens) (UniProt P09619); assay: Inhibition of recombinant human His-tagged PDGFRbeta cytoplasmic domain expressed in baculovirus expression system at 500 nM using Tyr 04 as substrate incubated for 1 hr in presence of ATP at its Km concentration by Z'-LYTE assay relative to control
Platelet-derived growth factor receptor beta (Homo sapiens), sequence (P09619 whole entry, the tested form may be a part): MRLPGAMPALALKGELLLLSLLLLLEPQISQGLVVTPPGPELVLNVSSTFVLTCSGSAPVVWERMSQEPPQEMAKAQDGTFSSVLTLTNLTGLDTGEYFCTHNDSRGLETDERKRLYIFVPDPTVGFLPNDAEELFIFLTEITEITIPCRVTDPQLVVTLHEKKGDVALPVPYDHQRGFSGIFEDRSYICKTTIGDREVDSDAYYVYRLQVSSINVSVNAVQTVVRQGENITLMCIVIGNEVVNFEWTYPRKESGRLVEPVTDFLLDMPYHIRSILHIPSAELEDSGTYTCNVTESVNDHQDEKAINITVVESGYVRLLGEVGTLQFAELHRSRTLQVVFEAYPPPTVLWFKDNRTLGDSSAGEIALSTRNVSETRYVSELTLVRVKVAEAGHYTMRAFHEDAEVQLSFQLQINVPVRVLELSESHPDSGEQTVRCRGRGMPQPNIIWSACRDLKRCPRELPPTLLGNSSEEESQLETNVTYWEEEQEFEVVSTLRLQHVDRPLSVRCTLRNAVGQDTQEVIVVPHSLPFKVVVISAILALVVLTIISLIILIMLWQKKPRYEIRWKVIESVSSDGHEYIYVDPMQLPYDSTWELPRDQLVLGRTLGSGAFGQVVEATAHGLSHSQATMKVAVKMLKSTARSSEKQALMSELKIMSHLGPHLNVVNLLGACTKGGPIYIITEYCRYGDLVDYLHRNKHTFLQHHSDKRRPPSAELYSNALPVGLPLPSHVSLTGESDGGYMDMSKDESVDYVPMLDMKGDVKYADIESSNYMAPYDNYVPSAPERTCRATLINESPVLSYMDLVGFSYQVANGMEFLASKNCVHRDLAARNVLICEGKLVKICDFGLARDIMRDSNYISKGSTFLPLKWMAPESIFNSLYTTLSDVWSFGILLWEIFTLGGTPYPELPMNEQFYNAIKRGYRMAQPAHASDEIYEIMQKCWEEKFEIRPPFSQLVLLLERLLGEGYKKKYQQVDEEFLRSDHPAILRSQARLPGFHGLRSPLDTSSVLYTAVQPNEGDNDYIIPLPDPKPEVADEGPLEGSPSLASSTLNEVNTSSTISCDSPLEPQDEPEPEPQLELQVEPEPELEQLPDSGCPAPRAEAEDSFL

[9] = molecular target: Tyrosine-protein kinase Fer (Homo sapiens) (UniProt P16591); assay: Inhibition of recombinant human GST-tagged FER (541 to 822 residues) expressed in baculovirus expression system at 500 nM using Tyr 05 peptide as substrate incubated for 1 hr in presence of ATP at its Km concentration by Z'-LYTE assay relative to control
[10] = molecular target: Receptor tyrosine-protein kinase erbB-2 (Homo sapiens) (UniProt P04626); assay: Inhibition of recombinant human His-tagged ERBB2 (676 to 1255 residues) expressed in baculovirus expression system at 500 nM using Tyr 06 peptide as substrate incubated for 1 hr in presence of ATP at its Km concentration by Z'-LYTE assay relative to control
Receptor tyrosine-protein kinase erbB-2 (Homo sapiens), sequence (P04626 whole entry, the tested form may be a part): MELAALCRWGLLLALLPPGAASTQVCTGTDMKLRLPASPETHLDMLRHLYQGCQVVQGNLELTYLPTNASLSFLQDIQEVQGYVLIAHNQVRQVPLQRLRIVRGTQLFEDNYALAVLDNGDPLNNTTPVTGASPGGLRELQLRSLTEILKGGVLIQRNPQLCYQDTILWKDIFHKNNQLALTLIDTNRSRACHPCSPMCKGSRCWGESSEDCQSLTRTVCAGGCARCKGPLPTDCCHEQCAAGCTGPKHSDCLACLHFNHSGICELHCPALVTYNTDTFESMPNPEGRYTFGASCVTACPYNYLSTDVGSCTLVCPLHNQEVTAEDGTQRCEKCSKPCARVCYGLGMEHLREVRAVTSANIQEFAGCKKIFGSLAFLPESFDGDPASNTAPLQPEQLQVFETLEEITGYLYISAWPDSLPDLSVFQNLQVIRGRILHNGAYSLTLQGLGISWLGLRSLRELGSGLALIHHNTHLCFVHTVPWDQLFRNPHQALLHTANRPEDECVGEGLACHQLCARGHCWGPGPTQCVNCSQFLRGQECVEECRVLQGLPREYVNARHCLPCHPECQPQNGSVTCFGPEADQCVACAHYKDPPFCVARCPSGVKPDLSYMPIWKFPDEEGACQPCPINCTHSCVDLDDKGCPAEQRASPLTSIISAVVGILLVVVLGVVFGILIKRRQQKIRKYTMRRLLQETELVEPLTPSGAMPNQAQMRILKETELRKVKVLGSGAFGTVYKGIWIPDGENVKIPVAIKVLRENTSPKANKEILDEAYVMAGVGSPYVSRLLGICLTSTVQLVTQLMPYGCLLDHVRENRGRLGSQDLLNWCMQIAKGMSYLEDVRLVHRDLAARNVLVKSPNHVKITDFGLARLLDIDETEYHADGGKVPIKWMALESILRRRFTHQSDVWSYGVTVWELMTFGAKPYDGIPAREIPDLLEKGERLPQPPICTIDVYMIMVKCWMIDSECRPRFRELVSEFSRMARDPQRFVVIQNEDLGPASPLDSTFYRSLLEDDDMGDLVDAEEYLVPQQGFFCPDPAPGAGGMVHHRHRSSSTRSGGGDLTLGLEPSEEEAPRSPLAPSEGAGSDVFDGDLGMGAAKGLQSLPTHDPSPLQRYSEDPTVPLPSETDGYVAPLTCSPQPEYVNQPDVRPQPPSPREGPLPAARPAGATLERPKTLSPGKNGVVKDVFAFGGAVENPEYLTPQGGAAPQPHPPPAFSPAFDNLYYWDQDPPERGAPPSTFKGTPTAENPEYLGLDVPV

| inhibition [1] | inhibition [2] | inhibition [3] | inhibition [4] | inhibition [5] | inhibition [6] | inhibition [7] | inhibition [8] | inhibition [9] | inhibition [10] | SMILES |
| --- | --- | --- | --- | --- | --- | --- | --- | --- | --- | --- |
| 16% | 1% | 0% | 16% | 19% | 33% | 12% | -1% | 6% | 53% | OC[C@@H](Nc1ncnc2[nH]c(-c3ccccc3)cc12)c1ccccc1 |
| 7% | -1% | 1% | 6% | 9% | 29% | 5% | 0% | 7% | 53% | COc1ccccc1-c1cc2c(N[C@H](CO)c3ccccc3)ncnc2[nH]1 |
| 11% | -10% | -8% | -4% | 20% | 38% | -4% | -5% | -1% | 52% | C#Cc1cccc(Nc2ncnc3cc(OCCOC)c(OCCOC)cc23)c1 [ERLOTINIB] |
| 23% | 7% | 13% | 0% | -3% | 17% | 5% | 11% | 10% | 36% | OCC[C@@H](Nc1ncnc2[nH]c(-c3ccccc3)cc12)c1ccccc1 |
| 54% | 4% | 15% | 9% | 3% | 22% | 1% | 10% | 7% | 58% | CN(C)CCNCc1ccc(-c2cc3c(N[C@H](CO)c4ccccc4)ncnc3[nH]2)cc1F |
| 21% | 6% | 8% | 3% | -2% | 14% | 2% | 8% | 12% | 35% | CCOc1ccccc1-c1cc2c(N[C@H](CO)c3ccccc3)ncnc2[nH]1 |
